{
  "source": "patent US11814652B2",
  "about": "“Pluripotent stem cell differentiation-promoting agent” (Oriental Yeast Co., Ltd., priority 2018, dated 2023)",
  "key": {"iPS cells 201B7 strain [1]": {"system": "iPS cells 201B7 strain", "assay": "Cell number during mesodermal differentiation-induction in medium with β-NMN (Example 3)", "assay_type": "cell-based, human", "conditions": "mesodermal differentiation-inducing medium containing β-NMN 0.1, 0.25 or 1 mM; 7th day after seeding; versus medium not containing β-NMN", "procedure": "The effects of β-NMN on the mesodermal differentiation-induction of iPS cells were examined. The 201B7 strain was used as the iPS cells. The iPS cells were seeded in a 24-well plate coated with Matrigel (manufactured by Corning Incorporated) according to the manufacturer's protocol at 1×10^5 cells/well. The cells in the 24-well plate were cultured in a culture medium for iPS cells adjusted to have a final concentration of Rock inhibitor of 10 μM for 1 day. From the 1st day after seeding, the culture medium was replaced with a culture medium prepared by adjusting a mesoderm differentiation-inducing culture medium of “STEMdiff Trilineage Differentiation kit” (manufactured by STEMCELL Technologies) to have a final concentration of β-NMN of 0, 0.1, 0.25, or 1 mM for 1 day. The culture medium was replaced with a culture medium prepared by adjusting a mesodermal differentiation-inducing culture medium to have final concentrations of both β-NMN and Rock inhibitor of 10 μM only on the 1st day after seeding. Cells of the 7th day after seeding were sampled and the cell numbers were counted. As a result, the number of the cells cultured in the mesodermal differentiation-inducing culture medium containing β-NMN was larger than the number of the cells cultured in the medium not containing β-NMN."}, "iPS cells 253G1 strain": {"system": "iPS cells 253G1 strain", "assay": "Cell number during endodermal differentiation-induction in medium with β-NMN (Example 4)", "assay_type": "cell-based", "conditions": "endodermal differentiation-inducing medium containing β-NMN 0.1, 0.25 or 1 mM; 7th day after seeding; versus medium not containing β-NMN", "procedure": "The effects of β-NMN on the induction of endodermal differentiation of iPS cells were examined. As the iPS cells, the 253G1 strain was used. The iPS cells were seeded in a 24-well plate coated with Matrigel (manufactured by Corning Incorporated) according to the manufacturer's protocol at 3×10^5 cells/well. The cells in the 24-well plate were cultured in a culture medium for iPS cells adjusted to have a final concentration of Rock inhibitor of 10 μM for 1 day. From the 1st day after seeding, the culture medium was replaced with a culture medium prepared by adjusting an endoderm differentiation-inducing culture medium of “STEMdiff Trilineage Differentiation kit” (manufactured by STEMCELL Technologies) to have a final concentration of β-NMN of 0, 0.1, 0.25, or 1 mM for 1 day. The culture medium was replaced with a culture medium prepared by adjusting an endodermal differentiation-inducing culture medium to have final concentrations of both β-NMN and Rock inhibitor of 10 μM only on the 1st day after seeding. Cells of the 7th day after seeding were sampled and the cell numbers were counted. As a result, the number of the cells cultured in the endodermal differentiation-inducing culture medium containing β-NMN was larger than the number of the cells cultured in the medium not containing β-NMN."}, "iPS cells 201B7 strain [2]": {"system": "iPS cells 201B7 strain", "assay": "Flow cytometry of Brachyury/CD56 after mesodermal differentiation-induction following undifferentiated culture with β-NMN (Example 6)", "assay_type": "cell-based, human", "conditions": "β-NMN 0.25 or 1 mM before mesodermal differentiation-induction; 5th or 7th day; versus absence of β-NMN", "procedure": "The effects of culturing in the presence of β-NMN before induction of differentiation on the mesodermal differentiation-induction of iPS cells was examined. As the iPS cells, the 201B7 strain was used. The iPS cells were cultured in a culture dish in the same manner as in Example 5, and when the confluent reached 70 to 80%, the iPS cells were detached from the culture dish and collected. The collected iPS cells were seeded at 1×10^5 cells/well in a 24-well plate coated with Matrigel (manufactured by Corning Incorporated) according to the manufacturer's protocol. The cells in the 24-well plate were cultured for 1 day in a culture medium prepared by removing β-NMN from the culture medium when culturing in the culture dish and adjusting to have a final concentration of Rock inhibitor of 10 μM. From the 1st day after seeding, the medium was replaced every day with a culture medium for mesodermal differentiation-induction of “STEMdiff Trilineage Differentiation kit” (manufactured by STEMCELL Technologies). In the same manner as in Example 3, the cells sampled on the 5th or 7th day after seeding were stained with a fluorescently labeled anti-Brachyury antibody and a fluorescently labeled anti-CD56 antibody, and a flow cytometer was used to analyze the fluorescence intensity of the anti-Brachyury antibody and the fluorescence intensity of the anti-CD56 antibody in each sample. […]"}, "iPS cells 201B7 strain [3]": {"system": "iPS cells 201B7 strain", "assay": "Cell number in ectodermal differentiation-induction after undifferentiated culture with β-NMN (Example 7)", "assay_type": "cell-based, human", "conditions": "β-NMN 0.25 or 1 mM in culture medium for iPS cells before ectodermal differentiation-induction; 7th or 9th day after seeding; versus no β-NMN", "procedure": "The effects of culturing in the presence of β-NMN before induction of differentiation on the ectodermal differentiation-induction of iPS cells was examined. As the iPS cells, the 201B7 strain was used. The iPS cells were cultured in a culture dish in the same manner as in Example 5, and when the confluent reached 70 to 80%, the iPS cells were detached from the culture dish and collected. The collected iPS cells were seeded at 3×10^5 cells/well in a 24-well plate coated with Matrigel (manufactured by Corning Incorporated) according to the manufacturer's protocol. The cells in the 24-well plate were cultured for 1 day in a culture medium prepared by removing β-NMN from the culture medium when culturing in the culture dish and adjusting to have a final concentration of Rock inhibitor of 10 μM. From the 1st day after seeding, the medium was replaced every day with a culture medium for ectodermal differentiation-induction of “STEMdiff Trilineage Differentiation kit” (manufactured by STEMCELL Technologies). The cells of the 7th or 9th day after seeding were sampled and the cell numbers were counted. The time-dependent change in cell number of each sample is shown in FIG. 12(A), and the cell number of each sample on the 9th day after seeding is shown in FIG. 12(B). […]"}},
  "data": [
    {"smiles": "NC(=O)c1ccc[n+]([C@@H]2O[C@H](COP(=O)([O-])O)[C@@H](O)[C@H]2O)c1", "note": "[β-NMN, β-nicotinamide mononucleotide]", "values": [
      {"measurement": "number of the cells", "setting": "iPS cells 201B7 strain [1]", "value": "larger"},
      {"measurement": "number of the cells", "setting": "iPS cells 253G1 strain", "value": "larger"},
      {"measurement": "ratio of Brachyury-positive CD56-positive cells", "setting": "iPS cells 201B7 strain [2]", "value": "no clear difference"},
      {"measurement": "number of the cells", "setting": "iPS cells 201B7 strain [3]", "value": "larger"}
    ]}
  ]
}
